The target in this test is NMDA receptor (Rattus norvegicus, UniProt P35439). The test can be described thus: [3H] MK-801 binding assay. The conditions noted are these: 50 μM glutamate; for Potency: rat forebrain crude synaptic membranes, [3H]MK-801 5 nM. Here is the method: Male 2-3 month old rats were decapitated without anesthesia by guillotine, and the brains were rapidly removed (˜90 sec) and whole cortex and hippocampus dissected on an ice cold platform, frozen on dry ice, and stored at −80° C. Samples were homogenized in 20 volumes of ice cold 5 mM Tris-HCl pH 7.4 by Brinkman Polytron and pelleted 48,000×g for 20 min at 4° C., and washed an additional 3 times as described above. Membranes were then resuspended in 5 mM EDTA and 15 mM Tris-HCl pH 7.4 and incubated for 1 hr at 37° C., membranes pelleted at 48,000×g for 20 min at 4° C., snap frozen in liquid nitrogen, and stored at −80° C. On the day of the experiment, membranes were thawed at room temperature and washed an additional 7 times in ice cold 5 mM Tris-HCl (pH 7.4) as described above. After the last wash, membranes were resuspended in assay buffer (5 mM Tris-acetate pH 7.4), and protein content was determined by the BCA assay.
[^3H] […] Then the tubes were washed three times with assay buffer (5 mM Tris-acetate PH 7.4), and the filters were analyzed by liquid scintillation to calculate the disintegrations per minute (DPM). Zero levels were determined in the absence of any glycine ligand and in the presence of 30 μM 5,7-Dichlorokynurenic acid (5,7-DCKA). Maximal stimulation was measured in the presence of 1 mM glycine. 50 μM glutamate was present in all samples.
For each data point (i.e., a single concentration of the test compound), the % maximal [^3H]
The efficacy for each compound, expressed as the % increase in [^3H]

Residues, ends and D or L forms follow the SMILES beside them.

This is an account of results in US8673843B2, “NMDA receptors modulators and uses thereof” (Northwestern University, priority 2010, dated 2014).

As for `NC(=O)[C@H](CO)NC(=O)[C@@H]1CCCN1C(=O)[C@@H]1CCCN1C(=O)[C@@H](N)CO` [Compound C, (S)—N—((S)-1-amino-3-hydroxy-1-oxopropan-2-yl)-1-((S)-1-((S)-2-amino-3-hydroxy-propanoyl)-pyrrolidine-2-carbonyl)-pyrrolidine-2-carboxamide] (H-SPPS-NH2), the Potency is listed as 16 pM.

As for `C[C@@H](O)[C@H](NC(=O)[C@@H]1CCCN1C(=O)[C@@H]1CCCN1C(=O)[C@@H](N)CO)C(N)=O` [Compound A, (S)—N-((2S,3R)-1-amino-3-hydroxy-1-oxobutan-2-yl)-1-((S)-1-((S)-2-amino-3-hydroxypropanoyl)pyrrolidine-2-carbonyl)pyrrolidine-2-carboxamide] (H-SPPT-NH2), the Potency is 5 pM.

As for `C[C@@H](O)[C@H](N)C(=O)N1CCC[C@H]1C(=O)N1CCC[C@H]1C(=O)N[C@@H](CO)C(N)=O` [Compound B, (S)—N—((S)-1-amino-3-hydroxy-1-oxopropan-2-yl)-1-((S)-1-((2S,3R)-2-amino-3-hydroxybutanoyl)pyrrolidine-2-carbonyl)pyrrolidine-2-carboxamide] (H-TPPS-NH2), the Potency came to 6 pM. Moreover, the “Efficacy (% Increase in [3H] MK-801 Binding)” value (best-fit top value, relative to 1 mM glycine maximal stimulation) was 24%.

As for `C[C@@H](O)[C@H](N)C(=O)N1CCC[C@H]1C(=O)N1CCCC1(Cc1ccccc1)C(=O)N[C@H](C(N)=O)[C@@H](C)O` (stereo partly drawn) [E, N-((2S,3R)-1-amino-3-hydroxy-1-oxobutan-2-yl)-1-((S)-1-((2S,3R)-2-amino-3-hydroxybutanoyl)-pyrrolidine-2-carbonyl)-2-benzylpyrrolidine-2-carboxamide], the Potency was determined as 0.2 pM.
